Measurements as given in patent US20260116910A1, “POLYCYCLIC COMPOUNDS AND METHODS THEREOF” (HEPAITECH (BEIJING) BIOPHARMA TECHNOLOGY CO., LTD., priority 2021, published 2026).
Where two headings read alike, the source gives them in different places.

Biological target: T1, human FXR (NR1H4) (Homo sapiens, UniProt Q96RI1)
T1 sequence (Q96RI1 1-476 isoform Q96RI1-1): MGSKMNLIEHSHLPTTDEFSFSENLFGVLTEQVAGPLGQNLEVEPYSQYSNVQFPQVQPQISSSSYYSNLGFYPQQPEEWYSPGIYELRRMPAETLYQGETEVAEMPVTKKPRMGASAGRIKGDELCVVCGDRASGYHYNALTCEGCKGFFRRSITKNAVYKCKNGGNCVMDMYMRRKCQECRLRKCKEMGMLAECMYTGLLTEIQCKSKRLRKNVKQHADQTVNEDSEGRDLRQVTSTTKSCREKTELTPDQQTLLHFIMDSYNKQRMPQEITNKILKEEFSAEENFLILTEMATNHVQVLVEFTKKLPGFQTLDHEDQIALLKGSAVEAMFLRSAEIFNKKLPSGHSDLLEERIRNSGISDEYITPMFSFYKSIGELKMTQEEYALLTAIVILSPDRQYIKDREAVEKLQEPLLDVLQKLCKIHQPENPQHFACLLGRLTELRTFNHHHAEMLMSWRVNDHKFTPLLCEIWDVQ
Assay: Human FXR (NR1H4) agonist assessment, FXRE-NanoLuc reporter in HEK293T cells
Assay type: cell-based
Settings: for EC50: read-out: EC50
Procedure: As those skilled in the art appreciate, various technologies are available for assessment of FXR activation in accordance with the present disclosure. […] Human FXR (NR1H4) agonist assessment (see, e.g., Yu et al. eLife 2019; 8: e48431): HEK293T cells stably expressing human FXR and containing FXR response element (FXRE)-NanoLuc reporter were cultured in DMEM medium supplemented with 10% FBS and 1% PS, at 37° C. in a humidified atmosphere with 5% CO2. Cells were detached by centrifuging (1000 rpm, 3 min). The pellet was re-suspended in medium, and cell density was adjusted to about 1×10^6 cells/mL. 100 μL suspension was seeded to each well of a white-walled, clear-bottom 96-well microplates (cell plate). Cells in microplates were cultured overnight.
In the following day, cells were grown to higher than 95% density in each well. Culture medium was replaced, and compounds were added to the wells. 0.01% DMSO (v/v) served as negative control. Plates were incubated at 37° C. in 5% CO2 for 24 hr.
In the following day, a 10 μL aliquot of cell culture medium was removed from each well and combined with 40 μL culture medium plus […] assay buffer (containing 20 mM of the luciferase substrate coelenterazine). After 5 min incubation, luminescence was measured using an EnVision plate reader (PerkinElmer).
In some embodiments, gradient diluted solutions of several concentrations were used to treat cells and corresponding responses were used to fit sigmoid function and to derive EC50 in Origin.

[1] = FXR activation, HEK293T FXRE-NanoLuc reporter, 24 hr

SMILES	Efficacy (maximum measured induction of NanoLuc, normalized to CDCA set as 100%) [1]	EC50 [1] [µM]	Efficacy (maximum measured induction of NanoLuc, normalized to CDCA set as 100%)
CC[C@H]1[C@@H](O)[C@@H]2[C@H](CC[C@]3(C)[C@@H]([C@H](C)CCNC(=O)NS(=O)(=O)c4ccc(C(C)(C)C(=O)OC)cc4)CC[C@@H]23)[C@@]2(C)CCCC[C@@H]12 [5-9]	B (300%<efficacy <=400%)	< 1	
CC[C@H]1[C@@H](O)[C@@H]2[C@H](CC[C@]3(C)[C@@H]([C@H](C)CCNC(=O)NS(=O)(=O)c4ccc(C(F)(F)F)cc4)CC[C@@H]23)[C@@]2(C)CCCC[C@@H]12 [5-19]	C (100%<efficacy <=300%)	< 1	
CC[C@H]1[C@@H](O)[C@@H]2[C@H](CC[C@]3(C)[C@@H]([C@H](C)CCNC(=O)NS(=O)(=O)C[C@]45CCC(CC4=O)C5(C)C)CC[C@@H]23)[C@@]2(C)CCCC[C@@H]12 [5-27]	A (efficacy >400%)	< 1	
CC[C@H]1[C@@H](O)[C@@H]2[C@H](CC[C@]3(C)[C@@H]([C@H](C)CCN)CC[C@@H]23)[C@@]2(C)CCCC[C@@H]12 [6-1]	B (300%<efficacy <=400%)	< 1	
CC[C@H]1[C@@H](O)[C@@H]2[C@H](CC[C@]3(C)[C@@H]([C@H](C)CCNC(=S)NS(=O)(=O)c4ccc(C(C)(C)CF)cc4)CC[C@@H]23)[C@@]2(C)CCCC[C@@H]12 [7-2]		< 1	B (key: A: efficacy >400%; B: 300%<efficacy <=400%; C: 100%<efficacy <=300%; D: efficacy <=100%)
